Measured values taken from the NIST ThermoML archive (doi:10.1016/j.jct.2006.06.008).

Experiment: xn = mol fraction of the nth substance listed
Settings: 101 kPa, Liquid

CCO [ethanol] + C1CCCCC1
x2 = 0
Settings	mass density [kg/m3]	speed of sound [m/s]	viscosity [mPa·s]
293.15 K	789.75	1162	1.187
298.15 K	785.46	1145	1.082
303.15 K	781.15	1128	0.987

CCO [ethanol] + C1CCCC1
x2 = 0
Settings	mass density [kg/m3]	speed of sound [m/s]	viscosity [mPa·s]
293.15 K	789.75	1162	1.187
298.15 K	785.46	1145	1.082
303.15 K	781.15	1128	0.987

C1CCCC1 [cyclopentane] + CCCO
Settings	mass density, 293.15 K [kg/m3]	mass density, 298.15 K [kg/m3]	mass density, 303.15 K [kg/m3]	speed of sound, 293.15 K [m/s]	speed of sound, 298.15 K [m/s]	speed of sound, 303.15 K [m/s]	viscosity, 293.15 K [mPa·s]	viscosity, 298.15 K [mPa·s]	viscosity, 303.15 K [mPa·s]
x1 = 0.0461	800.15	796.09	791.98	1219	1202	1184	2.035	1.809	1.613
x1 = 0.09	796.74	792.61	788.44	1216	1198	1180	1.859	1.655	1.479
x1 = 0.1885	789.64	785.36	781.04	1209	1190	1171	1.571	1.406	1.275
x1 = 0.2951	782.12	777.69	773.21	1204	1183	1163	1.284	1.159	1.052
x1 = 0.4056	774.79	770.22	765.59	1200	1178	1157	1.057	0.961	0.875
x1 = 0.5051	768.67	763.96	759.2	1199	1176	1153	0.867	0.79	0.725
x1 = 0.61	762.67	757.84	752.96	1199	1175	1152	0.712	0.656	0.608
x1 = 0.7109	757.16	752.26	747.29	1200	1176	1152	0.594	0.553	0.514
x1 = 0.8225	751.67	746.7	741.66	1206	1181	1156	0.507	0.476	0.448
x1 = 0.9134	747.4	742.5	737.43	1214	1188	1163	0.46	0.434	0.41
x1 = 0.9532	745.94	740.91	735.84	1219	1193	1168	0.447	0.422	0.4
x1 = 1	744.52	739.55	734.54	1232	1206	1180	0.439	0.416	0.394
